Read-outs that look alike come from different tables or passages of the source.
Key:
[1] = tested on: immature ovariectomized rats; assay: Estrogen agonistic activity: increase in uterine weight in immature ovariectomized rats; format: in vivo, rat; details: 3 days, percent of ovariectomized + vehicle group; for change in vivo at 3 mg/kg: daily dose 3 mg/kg
[2] = tested on: chick fetal bones in culture; assay: Inhibition in PTH-induced resorption of 45Ca from chick fetal bones in culture (antiresorptive activity in vitro); format: cell-based; details: Gallus gallus, 96 h, PTH-induced 45Ca resorption, 96 h culture, read-out: T/C ratio
Experimental: 5 μl of each concentration are used for evaluation of antiresorptive activity in vitro. In control experiments, 5 μl of appropriate solvent is used in lieu of the test compound. Femur bones are isolated from chick embryos on day 11 post-ovulation. The adhering soft connective tissue is completely removed. Each femur bone is then placed in a drop of phosphate buffered saline (PBS) and is transferred to BGJb culture medium containing ^45CaCl2 and incubated for 2 h. Labeled femur bones are washed 2-3 times with PBS and transferred to BGJb medium containing parathyroid hormone and cultured for 96 h in the presence or absence of the compound of invention or the vehicle in BGJb medium. Contralateral femur of each fetus serves as corresponding control. Culture medium with the respective treatment in each well is changed after 48 h. On termination of the culture at 96 h, bones are transferred to 0.1 N HCl for 24 h. Radioactivity due to ^45Ca in the spent medium collected at 48 and 96 h of culture and HCl extract at 96 h of culture is quantified by Liquid Scintillation Spectrophotometer in 10 ml of the scintillation fluid. Bone resorbing activity is expressed as percentage of ^45Ca released into the culture medium and the effect of the compound of invention as percent of the corresponding contra-lateral control or T/C ratio as shown below: [formula]
Appropriate solvents are selected from solvents like water, physiological saline, phosphate buffered saline, phosphate buffer, DMSO alone or in a suitable combination thereof.

[3] = target: T1, estrogen receptors (Rattus norvegicus, UniProt P06211); assay: Relative binding affinity (RBA) to estrogen receptors, 3H-estradiol competition assay; parameters: key: % of 17-beta-estradiol binding affinity (estradiol = 100); details: relative to 17-beta-estradiol (=100, percentage value); rat uterine cytosol, 3H-E2, 18 hrs at 4° C.
T1 construct: Aliquot of uterine cytosol (200 μl; 2 uteri per ml) prepared in TEA buffer; from tissue; host or cells: uterine cytosol of immature estradiol-primed 20-21 day old rats
T1 sequence (P06211 1-600): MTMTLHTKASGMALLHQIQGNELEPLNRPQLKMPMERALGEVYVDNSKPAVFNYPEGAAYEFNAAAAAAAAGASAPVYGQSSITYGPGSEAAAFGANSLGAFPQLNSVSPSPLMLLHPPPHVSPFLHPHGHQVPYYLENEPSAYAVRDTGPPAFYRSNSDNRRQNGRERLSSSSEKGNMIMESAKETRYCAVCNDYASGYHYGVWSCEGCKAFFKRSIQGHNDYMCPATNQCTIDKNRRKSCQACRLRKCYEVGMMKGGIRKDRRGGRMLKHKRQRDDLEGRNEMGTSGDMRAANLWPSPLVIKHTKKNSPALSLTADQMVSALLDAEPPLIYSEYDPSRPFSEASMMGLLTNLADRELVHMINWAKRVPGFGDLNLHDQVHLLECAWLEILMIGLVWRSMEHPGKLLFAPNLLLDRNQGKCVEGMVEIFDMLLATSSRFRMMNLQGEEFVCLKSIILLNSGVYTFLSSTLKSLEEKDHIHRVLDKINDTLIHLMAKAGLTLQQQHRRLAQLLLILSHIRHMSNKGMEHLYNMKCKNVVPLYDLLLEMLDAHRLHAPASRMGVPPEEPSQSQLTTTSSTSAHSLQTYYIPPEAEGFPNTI
Outline: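 Competition against a fixed concentration of ³H-estradiol for cytosolic receptor from uteri of immature (20-21 day) estradiol-primed rats, in TEA buffer pH 7.4 with ≤5% DMF, 18 h at 4° C. Free ligand removed with dextran-coated charcoal; bound radioactivity counted and RBA read from percent-bound vs log concentration plot, expressed as percentage.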

[4] = tested on: MCF-7 cells; assay: Antiproliferative/cytotoxic activity in cultured MCF-7 cells (SRB assay); format: cell-based; details: Homo sapiens, MCF7, 48 h, MCF-7, 48 h
Experimental: The procedure is based on the following methods: New calorimetric assay for anticancer drug screening, Skehan et al., J Natn Cancer Inst, 82,1107, 1990 and Feasibility of a high-flux anticancer drug screen using a diverse panel of cultured human tumor cell lines, J Natn Cancer Inst, 83,757, 1991.
A fully confluent flask of MCF-7 cells in trypsinized and 10^4 cells/well are plated in a 96 welled flat bottomed plate in 200 μl Minimum Essential Medium (MEM), pH 7.4 and allowed to attach for 24 h at 37° C. in a humidified CO2 incubator. Subsequently, the compound of invention dissolved in DMSO or ethanol is added at a specified concentration and further incubated for 48 h as before. The cells are then fixed in 50 μl cold 50% TCA and incubated for 1 h at 4° C. The supernatant is discarded and the plate is washed five times with deionized water and air-dried. 100 μl of 0.4% (w/v) Sulforhodamine B (SRB) in 1% acetic acid is added to each well and incubated at room temperature for 30 minutes. Unbound SRB is removed by five washes with chilled 1% acetic acid and the plate is air-dried. 200 μl of unbuffered 10 mM Tris base is added to solublize the bound stain for 5 minutes at room temperature and O.D. is read at 560 nm in a plate reader. The graph is plotted between O.D. and concentration and LC50 is calculated with respect to tamoxifen, which is used as a positive control.

Compound	change in vivo at 3 mg/kg ([1]; Rattus norvegicus, 72 h) [%]	change in vivo at 10 mg/kg ([1]; Rattus norvegicus, 72 h, daily dose 10 mg/kg) [%]	activity at 100 µM ([2]; 100 μM) [%]	RBA [3]	CC50 ([4]; read-out: LC50, Test-1) [µM]	CC50 ([4]; read-out: LC50, Test-3) [µM]	change in vivo at 1 mg/kg ([1]; Rattus norvegicus, 72 h, daily dose 1 mg/kg) [%]	Percent increase in uterine weight ([1]; daily dose 10 mg/kg) [%]	activity at 25 µM ([2]; 25 μM) [%]	activity at 50 µM ([2]; 50 μM) [%]	activity at 200 µM ([2]; 200 μM) [%]
c1ccc2c(c1)SCCc1c-2n(CCCCCCN2CCCCC2)c2ccccc12 [Example number 18, 12-[6-(Piperidine-1-yl)hexyl]-6,7-dihydro-12H-benzothiepino [5,4-b]indole]	1.76	51	160	0.17	18.2	9.63					
CCCCN(C)CCCCCn1c2c(c3ccccc31)CCSc1ccccc1-2 [Example number 13, 12-[5-(N-butylmethylamino)pentyl]-6,7-dihydro-12H-benzothiepino [5,4-b]indole]	2.53			<0.001	24		8	126.00	33	41	61

— patent publication US20050282863A1, “Novel-N substituted dihydrobenzothiepino, dihydrobenzoxepino and tetrahydro benzocyclohepta indoles as selective estrogen receptor modulators” (Council of Scientific & Industrial Research, priority 2004, published 2005)
